In US6579882B2, “Cell adhesion-inhibiting antiinflammatory compounds” (Abbott Laboratories, priority 1998, dated 2003):

Key:
VCAM-1 = assay: CAM ELISA: VCAM-1 expression on TNF-stimulated HUVECs; format: cell-based; conditions: 1 μM compound, primary human umbilical vein endothelial cells, compound 24 hours, then TNF 5 ng/mL 6 hours; for inhibition at 1 µM: Homo sapiens, Endothelial cell
Experimental: (§1) Pooled primary human umbilical vein endothelial cells (HtVEC's) (Clonetics) between passages 3 and 7 were plated in 96-well plates (Costar), 100 μL/well, 5×10^4 cells/mL in Clonetics EBM/2% FBS/EGF/Bovine brain extract/gentamicin in the absence of hydrocortisone. The following day, compounds of the invention were added in 10 μL/well medium, and the plates were incubated at 37° C. 24 hours after compound addition, TNF (Gibco/BRL) in 10 μL/well medium was added to a final concentration of 5 ng/mL, and the cells were incubated an additional 6 hours at 37° C. Then media was removed, and the plates were washed once with D-PBS (Gibco/BRL) and treated with primary antibodies (Becton Dickinson, City), 100 μL/well in D-PBS/2% BSA (Sigma)/0.01% azide. Primary antibodies at an initial concentration of 1 mg/mL were used at the following dilutions: anti-ELAM-1, 1:2000, anti-ICAM-1, 1:2000 and anti-VACM-1, 1:3000. Plates were stored overnight at 4° C., washed 3 times with D-PBS, and treated with secondary antibody (Jackson Labs), 100 μL/well 1:8000 dilution HRP-conjugated donkey anti-mouse IgG(H+L) in D-PBS/2%BSA. Plates were incubated a minimum of 1 hour at room temperature, washed 3 times with D-PBS and treated with 100 μL of orhto-phenylene diamine-2 HCl reagent per well. Plates were developed approximately 15 minutes and neutralized with 100 μL/well 1N sulfuric acid. Absorbance was read at 490 nm.

ICAM-1 = assay: CAM ELISA: ICAM-1 expression on TNF-stimulated HUVECs; format: cell-based; conditions: 1 μM compound, primary human umbilical vein endothelial cells, compound 24 hours, then TNF 5 ng/mL 6 hours; for inhibition at 1 µM: Homo sapiens, Endothelial cell
Experimental: as §1

E-Selectin = assay: CAM ELISA: E-selectin expression on TNF-stimulated HUVECs; format: cell-based; conditions: 1 μM compound, primary human umbilical vein endothelial cells, compound 24 hours, then TNF 5 ng/mL 6 hours; for inhibition at 1 µM: Homo sapiens, Endothelial cell
Experimental: as §1

## Cc1nnc(-c2cc3c(Oc4ccc(C(F)(F)F)cc4)cncc3s2)o1 [Example 290, 2-(5-Methyl-1,3,4-oxadiazol-2-yl)-4-[4-(trifluoromethyl)phenoxy]thieno[2,3-c]pyridine]
VCAM-1
  inhibition at 1 µM: 48%
ICAM-1
  inhibition at 1 µM: 53%
E-Selectin
  inhibition at 1 µM: 42%

## O=C(NCCN1CCOCC1)c1cc2c(Oc3ccc(Cl)cc3)cncc2s1 [Example 119, 4-(4-chlorophenoxy)-N-[2-(4-morpholinyl)ethyl]thieno[2,3-c]pyridine-2-carboxamide]
VCAM-1
  inhibition at 1 µM: 36%
ICAM-1
  inhibition at 1 µM: 61%
E-Selectin
  inhibition at 1 µM: 59%

## Cc1ccc(Sc2cncc3sc(C(N)=O)cc23)cc1 [Example 19, 4-[(4-methylphenyl)thio]thieno[2,3-c]pyridine-2-carboxamide]
VCAM-1
  inhibition at 1 µM: 41%
ICAM-1
  inhibition at 1 µM: 67%
E-Selectin
  inhibition at 1 µM: 79%

## Cc1occc1Sc1cncc2sc(C(N)=O)cc12 [Example 53, 4-[(2-methyl-3-fiuranyl)thio]thieno[2,3-c]piridine-2-carboxamide]
VCAM-1
  CAM ELISA % Inhibition at 1 μM VCAM-1: 48%
ICAM-1
  CAM ELISA % Inhibition at 1 μM ICAM-1: 67%
E-Selectin
  CAM ELISA % Inhibition at 1 μM E-Selectin: 70%

## NS(=O)(=O)c1cc2c(Oc3ccc(Cl)cc3)cncc2s1 [Example 120, 4-(4-Chlorophenoxy)thieno[2,3-c]pyridine-2-sulfonamide]
VCAM-1
  inhibition at 1 µM: 49%
ICAM-1
  inhibition at 1 µM: 72%
E-Selectin
  inhibition at 1 µM: 72%

## NC(=O)c1cc2c(Oc3cccnc3)cncc2s1 [Example 170, 4-(3-Pyridinyloxy)thieno[2,3-c]pyridine-2-carboxamide]
VCAM-1
  inhibition at 1 µM: 53%
ICAM-1
  inhibition at 1 µM: 67%
E-Selectin
  inhibition at 1 µM: 66%

## CC(C)OC(=O)OC[n+]1cc(Oc2ccc(Cl)cc2)c2cc(C(N)=O)sc2c1 [Example 233, 2-(Aminocarbonyl)-4-(4-chlorophenoxy)-6-{[(isopropoxycarbonyl)oxy]methyl}thieno[2,3-c]pyridin-6-ium]
VCAM-1
  CAM ELISA % Inhibition at 1 μM VCAM-1: 62%
ICAM-1
  CAM ELISA % Inhibition at 1 μM ICAM-1: 79%
E-Selectin
  CAM ELISA % Inhibition at 1 μM E-Selectin: 74%

## Clc1ccc(Oc2cncc3sc(-c4ncon4)cc23)cc1 [Example 287, 4-(4-Chlorophenoxy)-2-(1,2,4-oxadiazol-3-yl)thieno[2,3-c]pyridine]
VCAM-1
  inhibition at 1 µM: 27%
ICAM-1
  inhibition at 1 µM: 49%
E-Selectin
  inhibition at 1 µM: 49%

## CNC(=O)c1cc2c(Oc3ccc(C(F)(F)F)cc3)cncc2s1 [Example 183, N-Methyl-4-[4-(trifluoromethyl)phenoxy]thieno[2,3-c]pyridine-2-carboxamide]
VCAM-1
  inhibition at 1 µM: 48%
ICAM-1
  inhibition at 1 µM: 69%
E-Selectin
  inhibition at 1 µM: 63%

## O=C(NCCO)c1cc2c(Oc3ccc(C(F)(F)F)cc3)cnc(Cl)c2s1 [Example 320]
VCAM-1
  CAM ELISA % Inhibition at 1 μM VCAM-1: 55%
ICAM-1
  CAM ELISA % Inhibition at 1 μM ICAM-1: 67%
E-Selectin
  CAM ELISA % Inhibition at 1 μM E-Selectin: 64%

## NC(=O)c1cc2c(C(=O)Nc3ccc(Cl)cc3)cncc2s1 [Example 238, N-4-(4-Chlorophenyl)thieno[2,3-c]pyridine-2,4-dicarboxamide]
VCAM-1
  CAM ELISA % Inhibition at 1 μM VCAM-1: 17%
ICAM-1
  CAM ELISA % Inhibition at 1 μM ICAM-1: 47%
E-Selectin
  CAM ELISA % Inhibition at 1 μM E-Selectin: 46%

## CSc1nnc(-c2cc3c(Oc4ccc(Cl)cc4)cncc3s2)o1 [Example 281]
VCAM-1
  CAM ELISA % Inhibition at 1 μM VCAM-1: 20%
ICAM-1
  CAM ELISA % Inhibition at 1 μM ICAM-1: 25%
E-Selectin
  CAM ELISA % Inhibition at 1 μM E-Selectin: 18%

## CCOC(=O)c1cccc(Oc2cncc3sc(C(N)=O)cc23)c1 [Example 79, ethyl 3-[[2-(aminocarbonyl)thieno[2,3-c]pyridin-4-yl]oxy]benzoate]
VCAM-1
  inhibition at 1 µM: 38%
ICAM-1
  inhibition at 1 µM: 63%
E-Selectin
  inhibition at 1 µM: 66%

## O=C(O)CNC(=O)c1cc2c(Oc3ccc(Cl)cc3)cncc2s1 [Example 159]
VCAM-1
  CAM ELISA % Inhibition at 1 μM VCAM-1: 13%
ICAM-1
  CAM ELISA % Inhibition at 1 μM ICAM-1: 45%
E-Selectin
  CAM ELISA % Inhibition at 1 μM E-Selectin: 30%

## NC(=O)c1cc2c(SC3CCCCC3)cncc2s1 [Example 57, 4-(cyclohexylthio)thieno[2,3-c]pyridine-2-carboxamide]
other
  melting point: 205 to 207 °C

## Cc1ccc(Sc2cncc3sc(C(=O)NCC(O)CO)cc23)cc1 (stereo not drawn) [Example 37, N-(2,3-dihydroxypropyl)-4-[(4-methylphenyl)thio]thieno[2,3-c]pyridine-2-carboxamide]
other
  melting point: 120 to 122 °C

## NC(=O)c1csc(-c2cc3c(Oc4ccc(Cl)cc4)cncc3s2)n1 [Example 293, 2-[4-(4-Chlorophenoxy)thieno[2,3-c]pyridin-2-yl]-1,3-thiazole-4-carboxamide]
other
  melting point: 215 to 218 °C

## CCc1cc(Oc2cncc3sc(C(N)=O)cc23)ccc1Cl [Example 176, 4-(4-Chloro-3-ethylphenoxy)thieno[2,3-c]pyridine-2-carboxamide]
other
  melting point: 185 to 187 °C

## Cc1ccc(Sc2cncc3sc(C(N)=O)cc23)cc1C [Example 50, 4-[(3,4-dimethylphenyl)thio]thieno[2,3-c]pyridine-2-carboxamide]
other
  melting point: 192 to 194 °C

## CONC(=O)c1cc2c(Sc3ccc(C)cc3)cncc2s1 [Example 23, N-methoxy-4-[(4-methylphenyl)thio]thieno[2,3-c]pyridine-2-carboxamide]
other
  melting point: 200 to 203 °C

## Cc1ccc(Sc2cncc3sc(C=NOCC(=O)O)cc23)cc1 [Example 28, 2-[[[4-[(4-methylphenyl)thio]thieno[2,3-c]pyridin-2-ylmethylene]amino]oxy]acetic acid]
other
  melting point: 227 to 230 °C

## NC(=O)c1cc2c(Oc3cccc(F)c3F)cncc2s1 [Example 178, 4-(2,3-Difluorophenoxy)thieno[2,3-c]pyridine-2-carboxamide]
other
  melting point: 207 to 209 °C

## O=C(NCCCl)c1cc2c(Oc3ccc(Cl)cc3)cncc2s1
other
  melting point: 60 to 62 °C (dec.)

## NCc1cc2c(Oc3ccc(Cl)cc3)cncc2s1 [Example 256, [4-(4-Chlorophenoxy)thieno[2,3-c]pyridin-2-yl]methanamine]
other
  melting point: 78.6 to 79.8 °C

## NC(=O)c1sc2cncc(Oc3ccc(Cl)cc3)c2c1N [Example 131, 3-amino-4-(4-chlorophenoxy)thieno[2,3-c]pyridine-2-carboxamide]
other
  melting point: 202 to 204 °C

## NC(=O)c1cc2c(Oc3ccc(Cl)cc3)c[nH]c(=O)c2s1 [Example 323, 4-(4-Chlorophenoxy)-7-oxo-6,7-dihydrothieno[2,3-c]pyridine-2-carboxamide]
other
  melting point: > 250 °C

## O=C(NCC(O)CO)c1cc2c(Oc3ccc(Br)cc3)cncc2s1 (stereo not drawn) [Example 149, 4-(4-Bromophenoxy)-N-(2,3-dihydroxypropyl)thieno[2,3-c]pyridine-2-carboxamide]
other
  melting point: 76 to 77 °C

## CC(=NO)c1cc2c(Sc3ccc(C)cc3)cncc2s1 [Example 36, 1-[4-[(4-methylphenyl)thio]thieno[2,3-c]pyridin-2-yl]ethanone, oxime]
other
  melting point: 209 to 213 °C

## N#CN=C(N)c1cc2c(Oc3ccc(Cl)cc3)cncc2s1 [Example 250, 4-(4-Chlorophenoxy)-N′-cyanothieno[2,3-c]pyridine-2-carboximidamide]
other
  melting point: 265 to 268 °C

## CCc1cc2c(Sc3ccc(C)cc3)ncnc2s1 [Example 2, 6-ethyl-4-[(4-methylphenyl)thio]thieno[2,3-d]pyrimidine]
other
  melting point: 56 to 58 °C

## Clc1ccc(Oc2cncc3sc(C4=NCCN4)cc23)cc1 [Example 298, 4-(4-Chlorophenoxy)-2-(4,5-dihydro-1H-imidazol-2-yl)thieno[2,3-c]pyridine]
other
  melting point: 154 to 155 °C

## N#Cc1cc2c(Oc3ccc(Cl)cc3)cncc2s1 [Example 248, 4-(4-Chlorophenoxy)thieno[2,3-c]pyridine-2-carbonitrile]
other
  melting point: 140 to 142 °C

## Cc1ccc(Sc2cncc3sc(C=NOCc4ccccc4)cc23)cc1 [Example 27, 4-[(4-methylphenyl)thio]thieno[2,3-c]pyridine-2-carboxaldehyde, O-(phenylmethyl)oxime]
other
  melting point: 127 to 133 °C

## CNC(=O)c1cc2c(Oc3cccc(F)c3)cncc2s1 [Example 180, 4-(3-Fluorophenoxy)-N-methylthieno[2,3-c]pyridine-2-carboxamide]
other
  melting point: 194 to 195 °C

## Cc1ccc(Sc2cncc3sc(C(N)=O)cc23)c(C)c1 [Example 52, 4-[(2,4-dimethylphenyl)thio]thieno[2,3-c]pyridine-2-carboxamide]
other
  melting point: 193 to 195 °C

## Cc1ccc(Sc2ccnc3sc(C(N)=O)cc23)cc1 [Example 132D, 4-[(4-methylphenyl)thio]thieno[2,3-b]pyridine-2-carboxamide]
other
  melting point: 280 to 282 °C

## Clc1ccc(Oc2cncc3sc(-c4ncon4)cc23)cc1 (hydrate or solvate) [Example 287, 4-(4-Chlorophenoxy)-2-(1,2,4-oxadiazol-3-yl)thieno[2,3-c]pyridine]
other
  melting point: 151 to 152 °C

## CCc1cc2c(SCc3ccccc3)ncnc2s1 [Example 5, 6-ethyl-4-[(phenylmethyl)thio]thieno[2,3-d]pyrimidine]
other
  melting point: 54 to 60 °C
